Molecular target: KIF18A (Homo sapiens (Human), UniProt Q8NI77)
Experiment: KIF18A ATPase activity under tubulin stimulation (ADP-Glo assay)
Assay type: biochemical
Conditions: KIF18A 30 nM, ATP 150 μM, pig microtubules
Method: This experiment assesses the inhibitory effect of the compounds of the present disclosure on the KIF18A target according to the IC50 values by measuring the KIF18A ATPase activity under tubulin stimulation with the presence of the compounds.
• 1. Preparation of 30 mL of reaction buffer: • (1) 450 μL 1M Tris-HCl (pH=7.5)+300 μL 1M MgCl2+30 μL 10% Pluronic F-68 (ThermoFisher, 24040032-100 ml); • (2) adjusting pH to 7.5, and adding water to adjust the volume to 30 mL. • 2. Preparation of a 5 mg/mL pig microtubule (Microtubules; MT) (Cytoskeleton Inc, MT002) stock solution: • (1) 10 mL PM buffer=150 μL 1 M PIPES (pH 7.0)+20 μL 0.5 mM MgCl2+100 μL 2 mM Taxol (Cytoskeleton Inc, TXD01)+9730 μL water. • (2) MT ([…]): Adding 100 μL PM buffer to prepare a 5 mg/mL stock solution. Keeping the MT (Cytoskeleton Inc, MT002) at room temperature for 10-15 minutes, gently mixing and storing same at −80° C. • 3. Preparation of 2 mL of kinase buffer: 2 mL reaction buffer+1 μL 2 mM Taxol (Cytoskeleton Inc, TXD01)+12 μL 5 mg/mL MT (Cytoskeleton Inc, MT002). • 4. Preparation of 2×KIF18A (30 nM) (ChemPartner, CPB-P22-31645) working solution: 2.4 μL 10 μM KIF18A (ChemPartner, CPB-P22-31645)+800 μL 1× kinase buffer. • 5. Preparation of 2×ATP (150 μM) (Promega, G9101) working solution: 12 μL 10 mM ATP+800 μL 1× kinase buffer. • 6. 25 nL of compound was transferred to a 384-well plate using Echo650. • 7. 2.5 μL of 2×KIF18A from Step 4 (final concentration of 30 nM) was added to the 384-well plate and the plate was incubated at 25° C. for 15 minutes. • 8. 2.5 μL of 2×ATP from Step 5 (final concentration of 150 μM) was added to the 384-well plate and the plate was incubated at 25° C. for 15 minutes. • 9. 5 μL ADP-Glo™ Reagent (Promega, G9101) was added to the 384-well plate and the plate was incubated at 25° C. for 40 minutes. • 10. 10 μL of kinase detection reagent (Promega, G9101) was added to the 384-well plate and the plate was incubated at 25° C. for 40 minutes. • 11. Luminescence values were measured using the EnVision Xcite Multilabel Reader (PerkinElmer, 2105-0020).

KIF18A, sequence (Q8NI77 whole entry): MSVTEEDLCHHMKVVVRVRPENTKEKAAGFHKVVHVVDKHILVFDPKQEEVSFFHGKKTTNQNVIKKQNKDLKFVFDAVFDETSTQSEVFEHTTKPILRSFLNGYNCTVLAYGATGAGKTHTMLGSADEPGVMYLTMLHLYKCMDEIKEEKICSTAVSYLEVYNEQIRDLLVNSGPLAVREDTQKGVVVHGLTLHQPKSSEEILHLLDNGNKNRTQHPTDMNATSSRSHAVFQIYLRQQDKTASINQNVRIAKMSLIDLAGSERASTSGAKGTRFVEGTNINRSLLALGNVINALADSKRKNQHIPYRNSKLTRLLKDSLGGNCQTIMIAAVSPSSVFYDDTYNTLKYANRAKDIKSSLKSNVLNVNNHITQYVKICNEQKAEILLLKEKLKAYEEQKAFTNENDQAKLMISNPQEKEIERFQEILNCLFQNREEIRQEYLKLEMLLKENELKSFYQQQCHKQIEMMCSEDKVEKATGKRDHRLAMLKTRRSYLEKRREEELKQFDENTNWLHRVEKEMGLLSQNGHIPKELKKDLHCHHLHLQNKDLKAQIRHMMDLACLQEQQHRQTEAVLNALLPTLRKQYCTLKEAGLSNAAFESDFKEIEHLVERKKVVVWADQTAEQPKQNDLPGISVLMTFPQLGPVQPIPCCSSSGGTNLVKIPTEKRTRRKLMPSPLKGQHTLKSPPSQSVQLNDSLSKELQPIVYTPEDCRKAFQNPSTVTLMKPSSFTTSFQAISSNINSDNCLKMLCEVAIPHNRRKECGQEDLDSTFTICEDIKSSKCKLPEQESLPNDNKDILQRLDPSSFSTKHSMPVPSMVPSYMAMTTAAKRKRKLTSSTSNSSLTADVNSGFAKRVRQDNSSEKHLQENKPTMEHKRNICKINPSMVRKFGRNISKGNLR
KIF18A, sequence (P02550 whole entry partner): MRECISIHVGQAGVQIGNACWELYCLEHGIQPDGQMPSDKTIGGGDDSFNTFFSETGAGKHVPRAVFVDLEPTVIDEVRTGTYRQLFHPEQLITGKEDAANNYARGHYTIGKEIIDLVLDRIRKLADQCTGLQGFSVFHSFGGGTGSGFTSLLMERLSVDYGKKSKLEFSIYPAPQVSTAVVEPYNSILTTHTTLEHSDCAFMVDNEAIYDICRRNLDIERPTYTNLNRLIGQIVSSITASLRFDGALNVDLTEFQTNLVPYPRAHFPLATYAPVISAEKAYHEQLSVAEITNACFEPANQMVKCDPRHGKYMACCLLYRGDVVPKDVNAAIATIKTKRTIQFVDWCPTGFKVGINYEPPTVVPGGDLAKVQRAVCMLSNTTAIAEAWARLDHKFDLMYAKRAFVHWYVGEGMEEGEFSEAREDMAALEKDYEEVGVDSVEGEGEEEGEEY
KIF18A, sequence (P02554 whole entry partner): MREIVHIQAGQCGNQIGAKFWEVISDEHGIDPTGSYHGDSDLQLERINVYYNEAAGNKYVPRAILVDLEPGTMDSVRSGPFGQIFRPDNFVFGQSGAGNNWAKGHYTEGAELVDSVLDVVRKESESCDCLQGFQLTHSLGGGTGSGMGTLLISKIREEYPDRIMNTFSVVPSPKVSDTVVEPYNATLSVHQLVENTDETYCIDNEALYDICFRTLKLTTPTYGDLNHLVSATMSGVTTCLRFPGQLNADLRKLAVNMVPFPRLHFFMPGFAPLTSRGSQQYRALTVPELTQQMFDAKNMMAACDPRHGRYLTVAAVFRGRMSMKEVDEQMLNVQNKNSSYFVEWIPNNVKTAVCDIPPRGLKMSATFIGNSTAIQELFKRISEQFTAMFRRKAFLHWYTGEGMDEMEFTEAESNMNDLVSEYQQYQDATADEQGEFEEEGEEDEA

IC50	SMILES
50 to 500 nM	COC1c2cc3c(NC(=O)c4ccc(NS(=O)(=O)CCO)cc4N4CCC5(CC4)CC5)cccc3n2CCC1(F)F (single isomer, unassigned) [Compound 385-P1, N-(8,8-difluoro-9-(methoxy-d3)-6,7,8,9-tetrahydropyridino[1,2-a]indol-1-yl)-4-((2-hydroxyethyl)sulfonamido)-2-(6-azaspiro[2.5]oct-6-yl)benzamide]
50 to 500 nM	COC1c2cc3c(NC(=O)c4ccc(NS(=O)(=O)CCO)cc4N4CCC5(CC4)CC5)cccc3n2CCC1(F)F (single isomer, unassigned) [Compound 385-P2, N-(8,8-difluoro-9-(methoxy-d3)-6,7,8,9-tetrahydropyridino[1,2-a]indol-1-yl)-4-((2-hydroxyethyl)sulfonamido)-2-(6-azaspiro[2.5]oct-6-yl)benzamide]
50 to 500 nM	CN1CCCc2c(NC(=O)c3ccc(NS(=O)(=O)CCO)cc3N3CCC4(CC3)CC4)ccnc21 [Example 7, 4-(2-hydroxyethyl)sulfonamido-N-(8-methyl-5,6,7,8-tetrahydro-1,8-naphthyridin-4-yl)-2-(6-azaspiro[2.5]octan-6-yl)benzamide]
50 to 500 nM	O=C(Nc1ccnc2c1CCCN2CC1CC1)c1ccc(NS(=O)(=O)CCO)cc1N1CCC2(CC1)CC2 [Example 8, 4-(2-hydroxyethyl)sulfonamido-N-(8-cyclopropylmethyl-5,6,7,8-tetrahydro-1,8-naphthyridin-4-yl)-2-(6-azaspiro[2.5]octan-6-yl)benzamide]
50 to 500 nM	Cn1ccc2c(NC(=O)c3ccc(NS(=O)(=O)CCO)cc3N3CCC4(CC3)CC4)cccc21 [Example 10, 4-((2-hydroxyethyl)sulfonamido)-N-(1-methyl-1H-indol-4-yl)-2-(6-azaspiro[2.5]octan-6-yl)benzamide]
500 to 5000 nM	CN1CCCCc2c(NC(=O)c3ccc(NS(=O)(=O)CCO)cc3N3CCC4(CC3)CC4)cccc21 [Example 11, 4-((2-hydroxyethyl)sulfonamido)-N-(1-methyl-2,3,4,5-tetrahydro-1H-benzo[b]azepin-6-yl)-2-(6-azaspiro[2.5]octan-6-yl)benzamide]
500 to 5000 nM	O=C(Nc1cccc2c1CCCCN2CC1CC1)c1ccc(NS(=O)(=O)CCO)cc1N1CCC2(CC1)CC2 [Example 12]
50 to 500 nM	O=C(Nc1cccc2c1CCN2CC1CCC1)c1ccc(NS(=O)(=O)CCO)cc1N1CCC2(CC1)CC2 [Example 14, N-(1-(cyclobutylmethyl)dihydroindol-4-yl)-4-((2-hydroxyethyl)sulfonamido)-2-(6-azaspiro[2.5]octan-6-yl)benzamide]
500 to 5000 nM	O=C(Nc1cccc2c1CCN2CC1CCCC1)c1ccc(NS(=O)(=O)CCO)cc1N1CCC2(CC1)CC2 [Example 15, N-(1-(cyclopentylmethyl)dihydroindol-4-yl)-4-((2-hydroxyethyl)sulfonamido)-2-(6-azaspiro[2.5]oct-6-yl)benzamide]
> 5000 nM	O=C(Nc1cccc2c1C1(CC1)C(=O)N2CC1CC1)c1ccc(NS(=O)(=O)CCO)cc1N1CCC2(CC1)CC2 [Example 17, N-(1′-(cyclopropylmethyl)-2′-oxospiro[cyclopropane-1,3′-indolin]-4′-yl)-4-((2-hydroxyethyl)sulfonamido)-2-(6-azaspiro[2.5]octan-6-yl)benzamide]
> 5000 nM	O=C(Nc1cnc2n1CCCC2)c1ccc(NS(=O)(=O)CCO)cc1N1CCC2(CC1)CC2 [Example 19, 4-((2-hydroxyethyl)sulfonamido)-2-(6-azaspiro[2.5]octan-6-yl)-N-(5,6,7,8-tetrahydroimidazo[1,2-a]pyridin-3-yl)benzamide]
50 to 500 nM	O=C(Nc1ccnc(N2CCC(F)(F)CC2)c1)c1ccc(NS(=O)(=O)CCO)cc1OC1CCCCC1 [Example 22]
> 5000 nM	O=C(Nc1ccnc(N2CCC(F)(F)CC2)c1)c1ccc(NS(=O)(=O)CCO)cc1OC1CCOCC1 [Example 23, N-(2-(4,4-difluoropiperidin-1-yl)pyridin-4-yl)-4-((2-hydroxyethyl)sulfonamide)-2-((tetrahydro-2H-pyran-4-yl)oxy)benzamide]
500 to 5000 nM	O=C(Nc1ccnc(N2CCC(F)(F)CC2)c1)c1ccc(NS(=O)(=O)CCO)cc1OC1CCC(F)(F)CC1 [Example 24, 2-((4,4-difluorocyclohexyl)oxy)-N-(2-(4,4-difluoropiperidin-1-yl)pyridin-4-yl)-4-((2-hydroxyethyl)sulfonamide)benzamide]
> 5000 nM	O=C(Nc1cccc2c1CCN2CC1CC1)c1ccc(NS(=O)(=O)CCO)c2c1OCCO2 [Example 25, N-(1-(cyclopropylmethyl)indolin-4-yl)-8-((2-hydroxyethyl)sulfonamido)-2,3-dihydrobenzo[b][1,4]dioxine-5-carboxamide]
50 to 500 nM	Cc1cc(NC(=O)c2ccc(NS(=O)(=O)CCO)cc2OC2CC3(CCC3)C2)nc(N2CCC(F)(F)CC2)n1 [Example 26, N-(2-(4,4-difluoropiperidin-1-yl)-6-methylpyrimidin-4-yl)-4-((2-hydroxyethyl)sulfonamido)-2-(spiro[3.3]heptan-2-yloxy)benzamide]
500 to 5000 nM	O=C(Nc1cccc2c1CCN2CC1CC1)c1ccc(NS(=O)(=O)CCO)cc1OC1CCCCC1 [Example 27, 2-(cyclohexyloxy)-N-(1-(cyclopropylmethyl)indolin-4-yl)-4-((2-hydroxyethyl)sulfonamide)benzamide]
> 5000 nM	O=C(Nc1cccc2c1CCN2CC1CC1)c1ccc(NS(=O)(=O)CCO)cc1OC1CCC(F)(F)CC1 [Example 29, N-(1-(cyclopropylmethyl)indolin-4-yl)-2-((4,4-difluorocyclohexyl)oxy)-4-((2-hydroxyethyl)sulfonamide)benzamide]
50 to 500 nM	O=C(Nc1ccnc2c1CCN2CC1CC1)c1ccc(NS(=O)(=O)CCO)cc1N1CCC2(CC1)CC2 [Example 32, N-(1-(cyclopropylmethyl)-2,3-dihydro-1H-pyrrolo[2,3-b]pyridin-4-yl)-4-((2-hydroxyethyl)sulfanilamido)-2-(6-azaspiro[2.5]octan-6-yl)4-benzamide]
≤ 50 nM	O=C(Nc1ccnc2c1ccn2CC1CC1)c1ccc(NS(=O)(=O)CCO)cc1N1CCC2(CC1)CC2 [Example 33, N-(1-(cyclopropylmethyl)-1H-pyrrolo[2,3-b]pyridin-4-yl)-4-((2-hydroxyethyl)sulfanilamido)-2-(6-azaspiro[2.5]octan-6-yl)4-benzamide]
500 to 5000 nM	O=C(Nc1ncnc2c1ccn2CC1CC1)c1ccc(NS(=O)(=O)CCO)cc1N1CCC2(CC1)CC2 [Example 34, N-(7-(cyclopropylmethyl)-7H-pyrrolo[2,3-d]pyrimidin-4-yl)-4-((2-hydroxyethyl)sulfonamido)-2-(6-azaspiro[2.5]octan-6-yl)benzamide]
50 to 500 nM	Cc1cc(NC(=O)c2ccc(NS(=O)(=O)CCO)cc2N2CCC3(CC2)CC3)c2ccn(CC3CC3)c2n1 [Example 37, N-(1-(cyclopropylmethyl)-6-methyl-1H-pyrrolo[2,3-b]pyridin-4-yl)-4-((2-hydroxyethyl)sulfonamido)-2-(6-azaspiro[2.5]oct-6-yl)benzamide]
50 to 500 nM	O=C(Nc1cccc2c1ccn2CC1CC1)c1ccc(NS(=O)(=O)CCO)nc1N1CCC2(CC1)CC2 [Example 38, N-(1-(cyclopropylmethyl)-1H-indol-4-yl)-6-((2-hydroxyethyl)sulfonamido)-2-(6-azaspiro[2.5]oct-6-yl)nicotinamide]
50 to 500 nM	CNc1cc(NS(=O)(=O)CCO)cc(N2CCC3(CC2)CC3)c1C(=O)Nc1cccc2c1ccn2CC1CC1 [Example 39]
50 to 500 nM	CNc1cc(NS(=O)(=O)CCO)cc(N2CCC3(CC2)CC3)c1C(=O)Nc1ccnc2c1ccn2CC1CC1 [Example 40]

SMILES	IC50
CN1CCc2c(NC(=O)c3ccc(NS(=O)(=O)CCO)cc3N3CCC4(CC3)CC4)cccc21 [Example 6, 4-(N-(2-hydroxyethyl)sulfonamido)-N-(1-methylindolin-4-yl)-2-(6-azaspiro[2.5]octan-6-yl)benzamide]	50 to 500 nM
O=C(Nc1ccnc(N2CCC(F)(F)CC2)c1)c1ccc(NS(=O)(=O)CCO)cc1OC1CCCC1 [Example 28, 2-(cyclopentoxy)-N-(2-(4,4-difluoropiperidin-1-yl)pyridin-4-yl)-4-((2-hydroxyethyl)sulfonamide)benzamide]	500 to 5000 nM
O=C(Nc1cccc2c1CCN2CC1CC1)c1ccc(NS(=O)(=O)CCO)cc1OC1CCCC1 [Example 30, 2-(cyclopentoxy)-N-(1-(cyclopropylmethyl)indolin-4-yl)-4-((2-hydroxyethyl)sulfonamide)benzamide]	500 to 5000 nM
